Results on 1 molecule are retold here after patent US6924311B2, “Methods for affecting various diseases utilizing LXR compounds” (X-Ceptor Therapeutics, Inc., priority 2001, dated 2005).

One assay has as its target T1, LXRβ (Homo sapiens, UniProt P55055).
T1 sequence (P55055 1-460): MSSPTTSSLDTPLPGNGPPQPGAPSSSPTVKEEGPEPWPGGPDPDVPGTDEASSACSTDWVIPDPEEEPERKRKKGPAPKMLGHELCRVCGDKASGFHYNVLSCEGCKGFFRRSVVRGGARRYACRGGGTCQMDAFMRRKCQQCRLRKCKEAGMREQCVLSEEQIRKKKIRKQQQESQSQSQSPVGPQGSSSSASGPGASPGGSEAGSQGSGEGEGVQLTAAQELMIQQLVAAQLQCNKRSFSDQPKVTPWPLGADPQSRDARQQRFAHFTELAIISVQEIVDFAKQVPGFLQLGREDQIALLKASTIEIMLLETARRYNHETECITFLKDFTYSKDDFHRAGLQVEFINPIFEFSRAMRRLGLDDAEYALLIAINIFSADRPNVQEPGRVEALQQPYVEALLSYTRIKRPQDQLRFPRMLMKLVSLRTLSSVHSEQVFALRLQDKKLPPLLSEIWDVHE
The settings on record: stated as considered, no test described; cited from earlier work.

Assay [1] in a line: Plasma HDL cholesterol levels in wildtype and LXR knockout mice. It is filed as in vivo. The settings on record: 10 mg/kg daily oral, day 7. The protocol:
To determine the individual contribution of LXRα and LXRβ to increases in HDL cholesterol levels, Compound 1 (10 mg/kg) was administered for seven days by daily oral gavage in a sesame oil/ethanol vehicle via a 1 cc syringe fitted with a 20G disposable feeding needle. Compound was solvated in ethanol (5% final volume) and brought up to final volume with sesame oil (Sigma, St. Louis, Mo.). On day 7 mice were anesthetized with isofluorane and blood samples were obtained by retro-orbital plexus puncture. Blood samples were collected in heparinized tubes, centrifuged to obtain plasma and stored at -20° C. HDL levels were determined by precipitating non-HDL cholesterol from plasma samples using a precipitating reagent (Wako Diagnostic 278-67409, Richmond, Va.). The remaining HDL cholesterol was than quantitated using a colorimetric enzymatic assay adapted to a 96 well plate format (Infinity Total Cholesterol Reagent, Sigma, St. Louis, Mo.). […] (23%) strains and unchanged when LXRβ is eliminated. […] Thus either LXRα or LXRβ alone is competent to elevate HDL cholesterol in response to agonist treatment (FIG. 5). The lack of selectivity in HDL regulation contrasts the selective decrease in triglyceride levels observed only when LXRα is eliminated (LXRα-/-, LXRαβ-/-; FIGS. 1 and 2).

Assay [2] is described as follows: Plasma glucose levels in db/db mice. It is filed as in vivo. The settings on record: 50 mg/kg daily oral gavage, 14 days. The text has this:
Cardiovascular disease is one of the major complications of type II diabetes. […] A mouse model of type II diabetes is the diabetic (db/db) mouse. [See Coleman, D. L. (1978), Obese and Diabetes: Two Mutant Genes Causing Diabetes-Obesity Syndrom In Mice. Diabetologia 14, 141-148; and Hong Chen, Olga […], Louis […], Elizabeth A. Woolf, Xun Weng, Stephen J. Ellis, […], Janice Culpepper, Karen J. More, Roger E. Breitbart, Geoffrey M. Duyk, Robert I. and Jay P. Morgenstern (1996), Evidence That The Diabetes Gene Encodes The Leptin Receptor: Identification Of A Mutation In The Leptin Receptor In db/db Mice, Cell 84, 491-495.] […] To examine the ability of LXR agonists to modulate blood glucose levels, db/db mice were treated for 14 days with 50 mg compound/kg body weight of the LXR agonist Compound 1. As a positive control animals were also treated with 30 mg compound/kg body weight of the retinoid X receptor (RXR) agonist. […] Both compounds were administered by daily oral gavage in a sesame oil/ethanol vehicle via a 1-cc syringe fitted with a 20G disposable feeding needle. […] Plasma glucose levels were determined using a colorimetric enzymatic assay adapted to a 96 well plate format (Sigma, St. Louis, Mo.). […] The absorbance of the samples and standards were read using a Multiskan plate reader.

Assay [3] is described as follows: Plasma triglyceride levels in wildtype and LXR knockout mice after oral dosing. In kind it is in vivo. Conditions: 10 mg/kg daily oral gavage, 7 days. From the text:
To decipher the physiological roles of LXRα and LXRβ mice, seven different lines of mice encompassing four unique LXR genotypes (LXRα+/+, LXRβ+/+=wildtype; LXRα−/−, LXRβ+/+=LXRα−/−; LXRα+/+, LXRβ−/−=LXRβ−/−; LXRα−/−, LXRβ−/−=LXRαβ−/−) were studied. Genetic knockouts of LXRα( LXRα−/−) were generated in two independent mouse strain backgrounds (C57BL/6 and A129). Genetic knockouts of LXRβ (LXRβ−/−) and the double knockout of LXRα and LXRβ (LXRαβ−/−) were generated in a mixed genetic background (C57BL/6×A129). The three appropriate wildtype (LXRα+/+, LXRβ+/+) mouse lines were used as controls. Mice from each line were treated for seven days with 10 mg compound/kg body weight of the LXR agonist Compound 1: N-(2,2,2-trifluoroethyl)-N-[4-(2,2,2- trifluoro-1-hydroxy-1-trifluoromethylethyl)-phenyl]-benzene sulfonamide. […] Compound 1 was administered by daily oral gavage in a sesame oil/ethanol vehicle via a 1-cc syringe fitted with a 20G disposable feeding needle. Compound was solvated in ethanol (5% final volume) and brought up to final volume with sesame oil (Sigma, St. Louis, Mo.).
To determine the ability of Compound 1 to elevate serum triglycerides non-fasting mice were anesthetized with isofluorane and blood samples were obtained by retro-orbital plexus puncture. Blood samples were collected before the first dose and three hours after dosing on day 1, day 3 and day 7 into heparinized tubes. Samples were centrifuged to obtain plasma and stored at −20° C. Plasma triglyceride levels were determined using a colorimetric enzymatic assay adapted to a 96 well plate format (Infinity Triglyceride Reagent, Sigma, St. Louis, Mo.). Sigma glycerol standards (Sigma, St. Louis, Mo.) were use to generate standard curves. The absorbance of the samples and standards were read using a Multiskan plate reader.

Take `O=S(=O)(c1ccccc1)N(CC(F)(F)F)c1ccc(C(O)(C(F)(F)F)C(F)(F)F)cc1` [Compound 1, N-(2,2,2-trifluoroethyl)-N-[4-(2,2,2-trifluoro-1-hydroxy-1-trifluoromethylethyl)-phenyl]-benzene sulfonamide]: the “binding and activation of LXRβ” value at LXRβ is “binds and activates both LXRα and LXRβ with similar potency and efficacy”. Moreover, the “agonist-dependent increase in HDL” value is reported as “completely lost” in assay [1] (LXRαβ−/− mice) and “unchanged” in assay [1] (LXRβ−/− mice). The “reduction of agonist-dependent increase in HDL” value in assay [1] (LXRα−/− A129 mice versus wildtype) was found to be 23%; in assay [1] (LXRα−/− C57BL/6 mice versus wildtype), 8%. For the same molecule, the “effect on HDL levels” value in assay [1] (wildtype mice) is listed as “significant increase in HDL levels”. In assay [2], the “effect on plasma glucose (hyperglycemia)” value is on record as “significantly reduces hyperglycemia in db/db mice”. Further, the “effect on serum triglyceride levels” value in assay [3] (LXRβ−/− mice) is reported as “no effect on the ability of LXR agonists to elevate triglycerides”; in assay [3] (mice lacking LXRα (LXRα−/−, LXRαβ−/−)) it was “elevates serum triglyceride levels only in mice that have LXRα”; in assay [3] (wildtype mice), “elevates serum triglyceride levels”.
